We go through four molecules from patent US12173283B2, “Cell model for in vitro evaluation of compound-induced skin sensitization and a constructing method therefor” (South China University Of Technology, priority 2017, dated 2024).

Data set [1] deals with HMOX1 gene (luciferase reporter). In words: Luciferase expression assay in HMOX1-luciferase knock-in HaCaT monoclone No. 38 (detection of compound sensitization). The settings on record: human, HMOX1-luciferase knock-in HaCaT cells, clone No. 38, detection range of concentration 4 μM˜1000 μM, 48 h incubation, compared with negative control group, read-out: expression of luciferase (fold induction), highest reached. In kind it is cell-based. The procedure:
4. Analysis of sensitization of compounds after gene knock-in Sensitization of compounds was detected using clone No. 38.
Pre-cultured cells were centrifuged followed by removal of the supernatant, and were resuspended in fresh complete medium. The cell concentration was calculated with a cell counter after dilution for 10 times, and finally was adjusted to 50,000 cells/well. 200 μL of the cell solution was added to each well of a white opaque 96-well plate to ensure that the number of cells per well was substantially the same. The cell was incubated for 24 h at 37° C. in a 5% CO2 incubator. After 24 h, the medium was removed, and a working solution was prepared with 1% FBS medium. […] After 48 h, luciferase expression was measured and cell viability was detected using MTT.
• (1) 48 hours after treatment, the medium containing the reagent was discarded, and the plate was washed twice with PBS; • (2) 100 μL of PBS was added to each well, and then an equal volume of the luciferase substrate was added; • (3) The plate was shaken at 200 rpm for 2 min to fully lyse the cells; • (4) A Tecan Infinite® 200 Pro multi-function microplate reader selecting luminescence, integration 0.5s was used and the reading was recorded. […]

In a further data set the test system is HMOX1 gene target site. The data set is described as follows: T7EI digestion identification of target site cleavage by sgRNA co-transfected with hCas9 into 293T cells. It is filed as cell-based. The note with it: co-transfected with hCas9 plasmid, 72 hours, FIG. 1. The procedure: sgRNA-1, sgRNA-10, sgRNA-13 plasmid and hCas9 plasmid were co-transfected into 293T cells respectively. After 72 hours, the genome was extracted and expanded with the primers in Table 2 on the target site, and the PCR product was identified by T7EI digestion.
The sgRNA-1, sgRNA-10, and sgRNA-13 plasmids were co-transfected into the 293T cells with a H-Cas9 plasmid (using liposome transfection), and the transfection steps were as follows: • (1) The prior medium was discarded, and 2 mL of fresh medium for incubation was added; • (2) 0.5 μg of the sgRNA recombinant plasmid and 0.5 μg of the hCas9 plasmid were dissolved in 100 μL of DMEM (H), 3 μL of a liposome transfection reagent was diluted to 100 μL, and the diluted liposome transfection reagent was added to the diluted plasmid solution. The mixture was gently blew evenly, formulated into a transfection complex, and reacted at room temperature for 15 min; • (3) The transfection complex was dropped into 6 wells, and reacted at 37° C. for 5 h. Then the reaction solution was discarded, and fresh medium was added for cultivation. Genome Extraction Process
PCR amplification of sgRNA-1, sgRNA-10, and sgRNA-13 was carried out using the extracted genome after transfection as a template; PCR amplification was performed using the wild type (WT) as a template and primers with SEQ ID NO: 6-7 as shown in Table 2. […]

With `Sc1nc2ccccc2s1` [2-mercaptobenzothiazole], the fold induction at 48 h in data set [1] was at most 30.
The same measure, in the same setting: next, `OCC=Cc1ccccc1` [cinnamyl alcohol]: at most 21.
As for “sgRNA-1: specific sgRNA near the stop codon of HMOX1 gene, sequence TTAACAGGTGGGCGTGCATCAGG, Exon 5 (expressed or natural sequence)”, the “cleavage of the target site (T7EI digestion)” value in the data set with HMOX1 gene target site is “can effectively cleave the target site”.
On the same count and under the same terms, to “sgRNA-13: specific sgRNA near the stop codon of HMOX1 gene, sequence GCTTTATGCCATGTGAATGCAGG, Exon 5 (expressed or natural sequence; the letters are possibly those of the target site)” belongs “can effectively cleave the target site”.
